Test results reported in PubChem BioAssay (NCI).
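Step 1: Grow cells in 96-well plates. Step 2: Expose to compound for 48 hours at 5 concentrations. Step 3: Interpolate endpoints linearly; if unreached, use highest concentration. The concentration for full growth arrest is given as TGI.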

Columns and labels:
Test in all cases: DTP human tumour cell line panel, 48 h
[1] = tested on: U251 CNS
[2] = tested on: M14 melanoma
[3] = tested on: KM12 colon
[4] = tested on: HCT-116 colon
[5] = tested on: DU-145 prostate
[6] = tested on: SK-MEL-28 melanoma
[7] = tested on: CCRF-CEM leukemia
[8] = tested on: HCT-15 colon
[9] = tested on: HS 578T breast
[10] = tested on: MOLT-4 leukemia
[11] = tested on: NCI-H460 lung
[12] = tested on: HL-60(TB) leukemia
[13] = tested on: EKVX NSCLC
[14] = tested on: OVCAR-5 ovarian
[15] = tested on: MDA-MB-231 breast
[16] = tested on: SF-539 CNS
[17] = tested on: OVCAR-4 ovarian
[18] = tested on: HT29 colon
[19] = tested on: RXF 393 renal
[20] = tested on: NCI/ADR-RES ovarian
[21] = tested on: ACHN renal
[22] = tested on: BT-549 breast
[23] = tested on: HOP-62 NSCLC
[24] = tested on: RPMI-8226 leukemia
[25] = tested on: MDA-MB-435
[26] = tested on: A498 renal
[27] = tested on: 786-0 renal
[28] = tested on: SK-OV-3 ovarian
[29] = tested on: SK-MEL-2 melanoma
[30] = tested on: T-47D breast
[31] = tested on: UO-31 renal
[32] = tested on: SF-295 CNS
[33] = tested on: COLO 205 colon
[34] = tested on: HOP-92 NSCLC
[35] = tested on: UACC-257 melanoma
[36] = tested on: SNB-19 CNS
[37] = tested on: SK-MEL-5 melanoma
[38] = tested on: IGROV1 ovarian
[39] = tested on: MALME-3M melanoma
[40] = tested on: K-562 leukemia
[41] = tested on: TK-10 renal
[42] = tested on: SR leukemia
[43] = tested on: A549 NSCLC
[44] = tested on: NCI-H522 lung
[45] = tested on: PC-3 prostate
[46] = tested on: SW-620 colon
[47] = tested on: NCI-H226 lung
[48] = tested on: OVCAR-3 ovarian
[49] = tested on: OVCAR-8 ovarian
[50] = tested on: UACC-62 melanoma
[51] = tested on: MCF7 breast
[52] = tested on: LOX IMVI melanoma
[53] = tested on: NCI-H23 lung
[54] = tested on: SN12C renal
[55] = tested on: CAKI-1 renal
[56] = tested on: SF-268 CNS
[57] = tested on: SNB-75 CNS

Measured: TGI

CC1=CCC(C)=Nc2nc3ccccc3n21
> 100 µM: [1] | [2] | [3] | [4] | [5] | [6] | [7] | [8] | [9] | [10] | [11] | [12] | [13] | [14] | [15] | [16] | [17] | [18] | [19] | [20] | [21] | [22] | [23] | [24] | [25] | [26] | [27] | [28] | [29] | [30] | [32] | [33] | [34] | [35] | [36] | [37] | [38] | [39] | [40] | [41] | [42] | [43] | [44] | [45] | [46] | [47] | [48] | [49] | [50] | [51] | [52] | [53] | [54] | [55] | [56]
58.9 µM: [31]

NCCSc1nc(-c2ccccc2)c(-c2ccccc2)o1
> 100 µM: [1] | [2] | [3] | [4] | [5] | [6] | [8] | [9] | [11] | [13] | [14] | [15] | [16] | [17] | [18] | [19] | [20] | [21] | [22] | [23] | [24] | [25] | [26] | [27] | [28] | [29] | [30] | [31] | [32] | [33] | [34] | [35] | [36] | [37] | [38] | [39] | [40] | [41] | [42] | [43] | [44] | [45] | [46] | [47] | [48] | [49] | [50] | [51] | [52] | [53] | [54] | [55] | [56]
61.4 µM: [57]

COC(=O)c1ccccc1Nc1nc(-c2cccs2)nc2cc(OC)c(OC)cc12
89.4 µM: [47]
42.1 µM: [23]
70.2 µM: [41]
74.7 µM: [38]
97.7 µM: [32]
> 100 µM: [1] | [2] | [3] | [4] | [5] | [6] | [8] | [9] | [10] | [11] | [12] | [13] | [14] | [15] | [17] | [18] | [19] | [20] | [21] | [22] | [24] | [25] | [26] | [27] | [28] | [29] | [30] | [31] | [33] | [34] | [35] | [36] | [37] | [39] | [40] | [42] | [43] | [44] | [45] | [46] | [49] | [50] | [51] | [52] | [53] | [54] | [55] | [57] | [56]
72.2 µM: [48]
85.9 µM: [16]
